Results reported in ChEMBL document CHEMBL2331376, “Ridaifen B, a tamoxifen derivative, directly binds to Grb10 interacting GYF protein 2” (Bioorg Med Chem, 2013).
The source made the active and inactive calls. The rule behind the calls is not given here.

Legend:
[1] = molecular target: T1, GRB10-interacting GYF protein 2 (Homo sapiens) (UniProt Q6Y7W6); experiment: Binding affinity to Flag-tagged Grb10 interacting GYF protein 2 (unknown origin) expressed in HEK293T cells by Western blotting method based pull-down assay; assay type: cell-based; conditions: HEK-293T
T1 sequence (whole entry): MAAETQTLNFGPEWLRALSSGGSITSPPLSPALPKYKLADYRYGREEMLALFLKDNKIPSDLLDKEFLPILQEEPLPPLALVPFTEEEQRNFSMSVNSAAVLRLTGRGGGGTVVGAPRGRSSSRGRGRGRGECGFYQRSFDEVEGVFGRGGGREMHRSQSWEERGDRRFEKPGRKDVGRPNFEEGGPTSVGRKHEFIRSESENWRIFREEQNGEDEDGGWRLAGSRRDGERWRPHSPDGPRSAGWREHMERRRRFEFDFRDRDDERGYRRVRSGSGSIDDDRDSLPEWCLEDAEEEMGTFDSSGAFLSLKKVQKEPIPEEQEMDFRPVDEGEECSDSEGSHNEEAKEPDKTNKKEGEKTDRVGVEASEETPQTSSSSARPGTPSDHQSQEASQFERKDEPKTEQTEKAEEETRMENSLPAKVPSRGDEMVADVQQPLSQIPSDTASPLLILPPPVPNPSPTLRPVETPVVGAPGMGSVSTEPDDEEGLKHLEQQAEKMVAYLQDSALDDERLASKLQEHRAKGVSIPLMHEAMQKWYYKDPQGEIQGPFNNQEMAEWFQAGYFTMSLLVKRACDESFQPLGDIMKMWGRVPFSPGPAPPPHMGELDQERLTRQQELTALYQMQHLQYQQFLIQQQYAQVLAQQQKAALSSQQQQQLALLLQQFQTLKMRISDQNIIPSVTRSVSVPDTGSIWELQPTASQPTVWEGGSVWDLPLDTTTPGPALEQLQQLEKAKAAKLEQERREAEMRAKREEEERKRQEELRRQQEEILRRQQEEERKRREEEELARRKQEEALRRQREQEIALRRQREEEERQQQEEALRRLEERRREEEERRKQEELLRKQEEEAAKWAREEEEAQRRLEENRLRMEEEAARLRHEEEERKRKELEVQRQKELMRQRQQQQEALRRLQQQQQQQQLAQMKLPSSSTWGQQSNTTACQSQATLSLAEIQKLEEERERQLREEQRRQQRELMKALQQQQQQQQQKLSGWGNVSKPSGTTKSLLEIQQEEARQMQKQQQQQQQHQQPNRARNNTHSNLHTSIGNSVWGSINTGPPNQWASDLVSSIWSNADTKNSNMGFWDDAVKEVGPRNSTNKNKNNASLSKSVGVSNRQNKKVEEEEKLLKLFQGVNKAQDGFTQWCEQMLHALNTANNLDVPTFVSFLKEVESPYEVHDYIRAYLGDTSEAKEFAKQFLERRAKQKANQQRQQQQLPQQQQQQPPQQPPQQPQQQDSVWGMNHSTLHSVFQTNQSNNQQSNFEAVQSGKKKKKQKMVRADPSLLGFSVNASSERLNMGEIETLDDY

[2] = molecular target: T1, GRB10-interacting GYF protein 2 (Homo sapiens); experiment: Binding affinity to Grb10 interacting GYF protein 2 in human Jurkat cells using 10 uM compound immobilized on streptavidin-coated wells by T7 phase display screening method; assay type: cell-based
[3] = molecular target: T1, GRB10-interacting GYF protein 2 (Homo sapiens); experiment: (§1) Binding affinity to recombinant His-tagged Grb10 interacting GYF protein 2 (745-1030 amino acids) (unknown origin) by surface plasmon resonance analysis
[4] = molecular target: T2, GRB10-interacting GYF protein 2 (Homo sapiens, UniProt Q6Y7W6); experiment: as §1
T2 sequence (Q6Y7W6 whole entry): T1 sequence (whole entry)

Activity [1]	Activity [2]	Activity [3]	Kd [4] [nM]	Compound
inactive	inactive	inactive		CCC(=C(c1ccc(OCCN2CCOCC2)cc1)c1ccc(OCCN2CCOCC2)cc1)c1cccc(OC(=O)CCCCCNC(=O)CCCC[C@@H]2SC[C@@H]3NC(=O)N[C@@H]32)c1
Active	Active	Dose-dependent effect	186	CCC(=C(c1ccc(OCCN2CCCC2)cc1)c1ccc(OCCN2CCCC2)cc1)c1cccc(OC(=O)CCCCCNC(=O)CCCC[C@@H]2SC[C@@H]3NC(=O)N[C@@H]32)c1
